Experiments:
[1] = test system: Calf thymus DNA; assay: relative viscosity of DNA on addition of complex; type: binding; conditions: calf thymus DNA 4.19 × 10^−5 M, r 0-0.3
Experimental: The novel ruthenium(II) polypyridyl complexes [Ru(dppz)2(PIP)]^2+, 1, and [Ru(dppz)2(p-HPIP)]^2+, 2, (dppz = dipyrido[3,2-a:2′,3′-c]phenazine, PIP = (2-(phenyl)imidazo[4,5-f][1,10]phenanthroline) and p-HPIP ((2-(4-hydroxyphenyl)imidazo[4,5-f][1,10]phenanthroline)) were prepared by modification of reported synthetic pathways[17][30][31] and characterised by standard spectroscopic and analytical techniques (Figs S1–7 in the Supplementary Information). Evidence of a reversible binding interaction with DNA is provided by evidence of hypochromicity of the absorption spectra of 1 and 2 with increasing concentrations of DNA (Fig. S8). […] To investigate specific binding mode, relative viscosities of DNA with increasing concentrations of each complex were determined, where an increase in relative viscosity corresponds to the unwinding and lengthening of the DNA strand as a result of intercalation. […]
Calf thymus DNA, CT-DNA, (Sigma) was dissolved in NaCl (25 mm) and Tris (5 mm, pH 7.0) buffer and concentrations of determined spectroscopically (ε = 6600 dm^3 mol^−1cm^−1 at 260 nm). […] An equilibration time of 20 min was allowed before the flow times were recorded by Cannon–Manning semimicro viscometer (size 50) immersed in a thermostat bath (27 °C). Times were recorded in triplicate to within 0.1 second of each other and averaged values obtained.

[2] = test system: MCF7 breast cancer cells; assay: MTT proliferation assay, MCF7; type: cell-based, human; conditions: 24 h proliferation assay
Experimental: (LC3 = Microtubule-associated protein light chain 3) (Fig. 2b, bottom).
Cells were seeded in 96 well plates at 20,000 cells/well, allowed to proliferate for 24 h before treatment as described in the main text. 0.5 mg ml^−1 MTT (thiazolyl blue tetrazolium bromide) dissolved in serum-free media was added for 60 minutes and the formazan product eluted using acidified isopropanol. The absorbance at 540 nm was quantified by plate reader (reference wavelength 650 nm). The metabolic activity of the cell population was determined as a percentage of a negative (solvent) control.

[3] = test system: cleaved caspase-3 and LC3-II in HeLa cells; assay: Western blotting for cell death markers (cleaved caspase 3, LC3-II); type: cell-based, human; conditions: 24 h, concentrations centred on IC50
Experimental: Figure 2 Complexes 1 and 2 are internalised by cancer cells and impact proliferation. (a) Effect of 40 μM 1 or 2 (0–72 h incubation time) on numbers of viable (left) and non-viable (right, data expressed as % total cells, independent of viability) HeLa cells (in triplicate, +/− SD). […] (c) Intracellular Ru levels of HeLa cells treated with 1 or 2 (40 μM, 24 h), as determined by ICP-MS. (d) Ru levels within isolated subcellular fractions of HeLa cells treated with 1 or 2 (40 μM, 24 h). Fractions: C = cytoplasm and cytoskeleton, M = membrane, N = nucleus. Successful fractionation confirmed by immunoblotting (right). All ICP-MS data were normalised to protein content of the corresponding fraction and are the mean of two independent experiments +/− SEM. (e) Epifluorescence microscopy of HeLa cells treated with 1 or 2 (40 μM, 24 h) showing intracellular MLCT emission. Co-staining with nuclear stain DAPI included. Scale bars = 20 μm.
Cells were incubated as stated, washed with cold PBS and lysed in RIPA (radioimmunoprecipitation assay) buffer containing protease inhibitors (10 μg/ml leupeptin, 2 μg/ml pepstatin, 50 μg/ml antipain, 2 μg/ml aprotinin, 20 μg/ml chyprostatin, 2 μg/ml benzamidine, 1 mM phenylmethanesulfonyl fluoride) and phosphatase inhibitors (50 mM NaF, 1 mM Na3VO4 and 20 mM β-glycerophosphate). Aliquots of cell lysates (5–20 μg total protein) were resolved by NuPAGE® 4–12% Bis-Tris gels and LDS-PAGE, transferred onto nitrocellulose membrane and probed with primary antibodies in 5% BSA (bovine serum albumin) solutions. Reactions were visualised with a suitable secondary antibody conjugated with horseradish peroxidase (Thermo). Pierce ECL (Thermo) or WesternSurePREMIUM (Li-Cor) chemiluminescent substrates with X-ray development (Fuji medical film and Optimax 2010 processor) or digital analysis (LiCor C-Digit Blot Scanner) were used to visualise protein expression. Li-Cor Image Studio Lite software was used for densitometry data acquisition.

Row | Compound | relative viscosity of DNA [1] | IC50 [2] | generation of apoptosis marker cleaved caspase-3 [3] | levels of autophagy marker LC3-II [3]
1 | [Ru+2].c1ccc(-c2nc3c4cccnc4c4ncccc4c3[nH]2)cc1.c1ccc2nc3c4cccnc4c4ncccc4c3nc2c1.c1ccc2nc3c4cccnc4c4ncccc4c3nc2c1 [Complex 1, [Ru(dppz)2(PIP)]^2+] | increase relative viscosity of DNA | 28 µM | no generation of the apoptosis marker cleaved caspase-3 | no detectable increase
2 | Oc1ccc(-c2nc3c4cccnc4c4ncccc4c3[nH]2)cc1.[Ru+2].c1ccc2nc3c4cccnc4c4ncccc4c3nc2c1.c1ccc2nc3c4cccnc4c4ncccc4c3nc2c1 [Complex 2, [Ru(dppz)2(p-HPIP)]^2+] | increase relative viscosity of DNA | 12 µM | no generation of the apoptosis marker cleaved caspase-3 | greater in cells treated with 2 at IC50 concentrations or greater compared to untreated

— publication PMC4997316, “A ruthenium polypyridyl intercalator stalls DNA replication forks, radiosensitizes human cancer cells and is enhanced by Chk1 inhibition” (Scientific Reports, 2016)
